The values below come from PubChem BioAssay (NCI).

Values joined by “and” are separate entries in the source; they are usually repeats but may differ in a detail not shown here. Identical values can stand only once.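 Five compound concentrations were applied to cells in 96-well plates for 48 hours; endpoints were derived by simple linear interpolation of the resulting dose-response curve. Abbreviation: GI50, concentration required for 50% inhibition of growth. TGI is the concentration that stops growth completely.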 Bounds are passed on as bounds.

Among the test systems are MDA-MB-435; MALME-3M melanoma; HCT-15 colon; CCRF-CEM leukemia; SK-OV-3 ovarian; SK-MEL-28 melanoma; OVCAR-3 ovarian; RXF 393 renal; 786-0 renal; BT-549 breast.
Test in all cases: growth of human tumour cells (NCI), 48 h

Turning to `O=C(Cn1c(-c2ccccc2)cc2ccccc21)N1CCOCC1`, the TGI in the assay on MDA-MB-435, in the assay with MALME-3M melanoma, in the assay with HCT-15 colon, with CCRF-CEM leukemia, with SK-OV-3 ovarian and in the assay with SK-MEL-28 melanoma was > 100 µM throughout. Also, the TGI in the assay with OVCAR-3 ovarian, with RXF 393 renal and in the assay on 786-0 renal was > 100 µM throughout.

Take `Nc1nc2c(ccc3ccccc32)[nH]1`: the TGI in the assay on MDA-MB-435, in the assay on MALME-3M melanoma, in the assay with HCT-15 colon, in the assay with CCRF-CEM leukemia, with SK-OV-3 ovarian and in the assay with SK-MEL-28 melanoma was > 10 µM throughout. Besides, the TGI with OVCAR-3 ovarian and in the assay with RXF 393 renal was > 10 µM in each case.

Take `N/N=C(\N)SCc1ccc(N=C=S)cc1`: the TGI in the assay with MDA-MB-435, in the assay on MALME-3M melanoma, in the assay with HCT-15 colon, in the assay on CCRF-CEM leukemia, in the assay with SK-OV-3 ovarian and in the assay on SK-MEL-28 melanoma was > 100 µM each time. In addition, the TGI in the assay with RXF 393 renal and with 786-0 renal was > 100 µM throughout.

On to `O=C(Nc1nc2ccc([N+](=O)[O-])cc2s1)c1cc([N+](=O)[O-])ccc1Cl`, for which the TGI came out at 16.4 µM with MDA-MB-435; 10.4 µM in the assay with MALME-3M melanoma; 8.3 µM in the assay with HCT-15 colon; 13.6 µM in the assay on SK-OV-3 ovarian; 9.64 µM in the assay on OVCAR-3 ovarian; 15.5 µM with RXF 393 renal. Further, the TGI in the assay with BT-549 breast worked out at 6.83 µM; in the assay with 786-0 renal it was 11.7 µM.

In the case of `CC(=O)OCc1cc2c(s1)C(=O)c1sccc1C2=O`, the TGI in the assay with MDA-MB-435 worked out at 0.0322 µM; in the assay with MALME-3M melanoma it was 0.659 µM; in the assay on HCT-15 colon it was 0.303 µM; in the assay on SK-OV-3 ovarian, 3.3 µM; in the assay with SK-MEL-28 melanoma, 0.0721 µM; with OVCAR-3 ovarian it was 0.492 µM. In addition, the TGI was 0.31 µM in the assay on RXF 393 renal and 1.84 µM in the assay on 786-0 renal.

In the case of `NS(=O)(=O)c1cc2c(cc1Cl)NC(C(=O)NNC(=O)c1ccncc1)=NS2(=O)=O`, the TGI in the assay on MALME-3M melanoma, in the assay on HCT-15 colon, with CCRF-CEM leukemia, in the assay with SK-OV-3 ovarian, in the assay with SK-MEL-28 melanoma and in the assay with OVCAR-3 ovarian was > 100 µM in each case. For the same compound, the TGI with RXF 393 renal and in the assay with 786-0 renal was > 100 µM in each case.

Take `CCCSC1=N/C(=C\c2ccco2)C(=O)N1`: the TGI in the assay with MDA-MB-435, in the assay with MALME-3M melanoma, in the assay on HCT-15 colon, in the assay with SK-OV-3 ovarian, with SK-MEL-28 melanoma and with OVCAR-3 ovarian was > 100 µM each time. The TGI in the assay with RXF 393 renal, in the assay with BT-549 breast and in the assay on 786-0 renal was > 100 µM throughout.

Turning to `CSC(=NCCCN=C(NS(=O)(=O)c1ccc(Cl)cc1)SC)NS(=O)(=O)c1ccc(Cl)cc1`, the TGI is > 100 µM with MDA-MB-435; 72.7 µM with MALME-3M melanoma; > 100 µM in the assay on HCT-15 colon; > 100 µM in the assay with CCRF-CEM leukemia; > 100 µM in the assay on SK-OV-3 ovarian; > 100 µM in the assay on SK-MEL-28 melanoma. Besides, the TGI was 80 µM in the assay with OVCAR-3 ovarian and > 100 µM in the assay with 786-0 renal.

Regarding `COc1ccc(Sc2ccccc2[N+](=O)[O-])cc1`, the TGI was > 100 µM in the assay on MALME-3M melanoma; > 100 µM in the assay on HCT-15 colon; > 100 µM in the assay with CCRF-CEM leukemia; > 100 µM in the assay with SK-OV-3 ovarian; 46.4 µM with SK-MEL-28 melanoma; 58.9 µM in the assay with OVCAR-3 ovarian. Besides, the TGI in the assay on RXF 393 renal was 78.7 µM.

In the case of `COC1=C(C)C(=O)C2=C(C1=O)C1C3CC4=C(C(=O)C(OC)=C(C)C4=O)C(CNC(=O)C(C)=O)N3C(C#N)C(C2)N1C` (stereo not drawn), the GI50 with MDA-MB-435 is 0.00034 µM; with SK-OV-3 ovarian, 0.00656 µM and 0.0382 µM; in the assay with SK-MEL-28 melanoma it was 0.000169 µM. In addition, the TGI with MDA-MB-435 is 0.00124 µM and 0.00553 µM; in the assay with SK-OV-3 ovarian, 0.417 µM and 1.55 µM; in the assay on OVCAR-3 ovarian, 0.00533 µM and 0.0414 µM and < 0.0468 µM; with RXF 393 renal, 0.0161 µM; in the assay on BT-549 breast, 0.0017 µM.

For the compound `O=C(NCc1ccc(Cl)c(Cl)c1)c1nc2ccccc2nc1NCc1ccc(Cl)c(Cl)c1`, the TGI in the assay with MDA-MB-435, with HCT-15 colon, with CCRF-CEM leukemia, with SK-MEL-28 melanoma, in the assay on OVCAR-3 ovarian and with RXF 393 renal was > 100 µM each time. The TGI in the assay on BT-549 breast and in the assay with 786-0 renal was > 100 µM each time.

As to `CCCCCCCCCCCC1=C(O)C(=O)C=C(O)C1=O`, the TGI with MALME-3M melanoma is 16.5 µM; with HCT-15 colon, 49.3 µM; with CCRF-CEM leukemia, 36.7 µM; with SK-OV-3 ovarian, 21.2 µM; in the assay on SK-MEL-28 melanoma it was 37.5 µM; in the assay with OVCAR-3 ovarian, 14.4 µM. This compound also had a TGI in the assay with RXF 393 renal of 54.6 µM.

As for `CCOC(=O)N/N=C(/N)Cc1ccc(Cl)cc1`, the TGI with MDA-MB-435, with HCT-15 colon, in the assay with CCRF-CEM leukemia, with SK-OV-3 ovarian, in the assay on SK-MEL-28 melanoma and in the assay with OVCAR-3 ovarian was > 100 µM throughout. Also, the TGI in the assay with RXF 393 renal, in the assay on BT-549 breast and with 786-0 renal was > 100 µM throughout.

For the compound `C[C@@H](c1ccccc1)N(CC#N)[C@H]1CCC[C@]1(O)/C=C/c1ccc2c(c1)OCO2`, the TGI in the assay on MDA-MB-435, in the assay with MALME-3M melanoma, in the assay on HCT-15 colon, in the assay with CCRF-CEM leukemia, in the assay with SK-OV-3 ovarian and in the assay on SK-MEL-28 melanoma was > 25 µM each time. In addition, the TGI in the assay with RXF 393 renal and with 786-0 renal was > 25 µM each time.

Take `O=C(C[N+]1(c2ccccc2)CCOCC1)c1ccccc1`: the TGI in the assay on MDA-MB-435 is > 100 µM; with MALME-3M melanoma it was > 100 µM; with HCT-15 colon, > 100 µM; in the assay on SK-MEL-28 melanoma, 0.0908 µM; with OVCAR-3 ovarian, > 100 µM; in the assay on RXF 393 renal, > 100 µM. For the same compound, the TGI in the assay on BT-549 breast and with 786-0 renal was > 100 µM throughout.

Turning to `COc1cc(O)c2c(=O)c(O)c(-c3ccc(O)c(O)c3)oc2c1`, the TGI in the assay with MDA-MB-435 was 85.5 µM; in the assay on MALME-3M melanoma it was 69.3 µM; in the assay on HCT-15 colon it was > 100 µM; in the assay on CCRF-CEM leukemia, 33 µM; in the assay with SK-OV-3 ovarian it was 56.9 µM; in the assay with SK-MEL-28 melanoma, > 100 µM. The compound also gave a TGI in the assay on OVCAR-3 ovarian of 21.8 µM.
